Measurements: patent US20130217664A1, “NOVEL COMPOUNDS USEFUL FOR THE TREATMENT OF DEGENERATIVE AND INFLAMMATORY DISEASES” (priority 2012, published 2013)
pIC50: −log10 of the molar value.

Experiments:
human JAK1 = biological target: T1, human JAK1 (Homo sapiens, UniProt P23458); assay: JAK1 inhibition assay (polyGT substrate / Ulight-JAK1 peptide); type: biochemical; conditions: recombinant human JAK1 catalytic domain; polyGT or Ulight-JAK1 peptide assay
T1 construct: catalytic domain, amino acids 866-1154; catalog number PV4774; purchased Invitrogen PV4774
Method in brief: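 Signal scaled between vehicle and 10 μM staurosporine. Radiometric polyGT reactions ran 45 min at 30 °C, counted after phosphoric-acid stop. Ulight peptide reactions ran 60 min at room temperature, fluorescence read after adding Eu-PT66 detection mix with EDTA.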

human JAK3 = biological target: T2, human JAK3 (Homo sapiens, UniProt P52333); assay: JAK3 inhibition assay; type: biochemical; conditions: recombinant human JAK3 catalytic domain; polyGT substrate
T2 construct: catalytic domain (amino acids 781-1124; catalog number PV3855); purchased Invitrogen PV3855
Method in brief: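 Radiometric kinase assay: 0.5 ng JAK3 with 2.5 μg polyGT in Tris pH 7.5/MgCl2 buffer, 1 μM ATP plus 0.25 μCi 33P-γ-ATP, 1% DMSO, 45 min at 30 °C, stopped with phosphoric acid.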

human TYK2 = biological target: T3, human TYK2 (Homo sapiens, UniProt P29597); assay: TYK2 inhibition assay; type: biochemical; conditions: recombinant human TYK2 catalytic domain, polyGT substrate
T3 construct: catalytic domain (amino acids 871-1187; catalog number 08-147); purchased Carna Biosciences 08-147
T3 sequence (P29597 871-1187): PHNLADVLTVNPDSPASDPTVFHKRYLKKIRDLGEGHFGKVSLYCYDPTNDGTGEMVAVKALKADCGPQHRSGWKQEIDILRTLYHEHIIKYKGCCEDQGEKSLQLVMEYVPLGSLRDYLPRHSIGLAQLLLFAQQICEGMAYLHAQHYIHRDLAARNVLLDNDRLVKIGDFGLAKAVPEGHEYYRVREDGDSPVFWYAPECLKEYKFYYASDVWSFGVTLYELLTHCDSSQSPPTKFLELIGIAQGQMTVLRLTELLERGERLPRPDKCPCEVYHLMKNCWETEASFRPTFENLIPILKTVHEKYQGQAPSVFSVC
Method in brief: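 Radiometric kinase reaction run 90 min at 30 °C, stopped with phosphoric acid, washed and scintillation-counted.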

[1] = tested on: pSTAT1(2)-luciferase reporter in HeLa cells triggered with human OSM; assay: JAK-STAT signalling assay; type: cell-based; conditions: Homo sapiens, HeLa, HeLa cells, pSTAT1(2)-luciferase reporter, human OSM 33 ng/mL; read-out: JAK-STAT IC50
Experimental: JAK-STAT Signalling Assay
HeLa cells were maintained in Dulbecco's Modified Eagle's Medium (DMEM) containing 10% heat inactivated fetal calf serum, 100 U/mL penicillin and 100 μg/mL streptomycin. HeLa cells were used at 70% confluence for transfection. 20,000 cells in 87 μL cell culture medium were transiently transfected with 40 ng pSTAT1(2)-luciferase reporter (Panomics), 8 ng of LacZ reporter as internal control reporter and 52 ng of pBSK using 0.32 μL Jet-PEI (Polyplus) as transfection reagent per well in 96-well plate format. After overnight incubation at 37° C., 5% CO2, transfection medium was removed. 81 μL of DMEM+1.5% heat inactivated fetal calf serum was added. 9 μL compound at 10× concentration was added for 60 min and then 10 μL of human OSM (Peprotech) at 33 ng/mL final concentration.
After overnight incubation at 37° C., 5% CO2 cells were lysed by adding 100 μL lysis buffer/well (PBS, 0.9 mM CaCl2, 0.5 mM MgCl2, 10% Trehalose, 0.05% Tergitol NP9, 0.3% BSA).
40 μL of cell lysate was used to read β-galactosidase activity by adding 180 μL β-Gal solution (30 μL ONPG 4 mg/mL+150 μL β-Galactosidase buffer (0.06 M Na2HPO4, 0.04 M NaH2PO4, 1 mM MgCl2)) for 20 min.
Luciferase activity was measured using 40 μL cell lysate plus 40 μL of Steadylite as described by the manufacturer (Perkin Elmer), on the Envision (Perkin Elmer).
The positive and negative controls were used to calculate z′ and ‘percent inhibition’ (PIN) values.
Percentage inhibition=((fluorescence determined in the presence of vehicle−fluorescence determined for sample with test compound present)divided by(fluorescence determined in the presence of vehicle−fluorescence determined for sample without trigger))*100.
PIN values were plotted for compounds tested in dose-response and EC50 values were derived.

T1 sequence (P23458 866-1154): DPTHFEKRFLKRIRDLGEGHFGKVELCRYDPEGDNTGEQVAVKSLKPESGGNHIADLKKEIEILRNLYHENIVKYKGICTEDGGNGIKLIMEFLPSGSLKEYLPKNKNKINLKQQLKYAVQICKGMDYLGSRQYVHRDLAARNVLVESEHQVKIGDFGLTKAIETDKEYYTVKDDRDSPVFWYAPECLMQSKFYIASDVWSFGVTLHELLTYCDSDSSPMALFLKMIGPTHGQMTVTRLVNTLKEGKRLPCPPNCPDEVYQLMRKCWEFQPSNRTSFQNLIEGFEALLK
T2 sequence (P52333 781-1124): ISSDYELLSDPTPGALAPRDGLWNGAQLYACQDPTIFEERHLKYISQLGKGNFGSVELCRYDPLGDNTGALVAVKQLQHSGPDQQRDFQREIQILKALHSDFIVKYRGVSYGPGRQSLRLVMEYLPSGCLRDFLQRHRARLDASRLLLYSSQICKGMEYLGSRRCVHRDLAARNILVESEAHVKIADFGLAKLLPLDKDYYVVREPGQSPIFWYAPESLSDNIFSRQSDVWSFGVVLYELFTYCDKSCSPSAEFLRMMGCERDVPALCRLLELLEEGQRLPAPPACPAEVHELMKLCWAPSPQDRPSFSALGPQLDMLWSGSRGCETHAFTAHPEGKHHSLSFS

SMILES	pIC50 (human JAK1)	pIC50 (human JAK3)	pIC50 (human TYK2)	pIC50 [1]
CCc1cc(-c2cnc(N(C)C)nc2)ccc1N(C)c1cc2c(cn1)ncn2C [Compound 129, N-(4-(2-(dimethylamino)pyrimidin-5-yl)-2-ethylphenyl)-N,1-dimethyl-1H-imidazo[4,5-c]pyridin-6-amine]	7.00 to 11.00	< 6.00	6.30 to 7.00	< 6.00
CCc1cc(-c2ccc(C)nc2)ccc1N(C)c1cc2c(cn1)ncn2C [Compound 131, N-(2-ethyl-4-(6-methylpyridin-3-yl)phenyl)-N,1-dimethyl-1H-imidazo[4,5-c]pyridin-6-amine]	7.00 to 11.00	< 6.00	6.30 to 7.00	6.00 to 6.30
CCc1cc(-c2ccc(O)nc2)ccc1N(C)c1cc2c(cn1)ncn2C [Compound 132, 5-(3-Ethyl-4-(methyl(1-methyl-1H-imidazo[4,5-c]pyridin-6-yl)amino)phenyl)pyridin-2-ol]	7.00 to 11.00	6.30 to 7.00	7.00 to 11.00	6.00 to 6.30
CCc1cc(CNC)ccc1N(C)c1cc2c(cn1)ncn2C [Compound 135, N-(2-ethyl-4-((methylamino)methyl)phenyl)-N,1-dimethyl-1H-imidazo[4,5-c]pyridin-6-amine]	7.00 to 11.00	< 6.00	< 6.00	< 6.00
CCc1cc(CN2CCN(S(C)(=O)=O)CC2)ccc1N(C)c1cc2c(cn1)ncn2C [Compound 136, N-(2-Ethyl-4-((4-(methylsulfonyl)piperazin-1-yl)methyl)phenyl)-N,1-dimethyl-1H-imidazo[4,5-c]pyridin-6-amine]	7.00 to 11.00	6.00 to 6.30	7.00 to 11.00	6.00 to 6.30
CCc1cc(-c2cnn(Cc3ccccc3)c2)ccc1N(C)c1cc2c(cn1)ncn2C [Compound 139, N-(4-(1-benzyl-1H-pyrazol-4-yl)-2-ethylphenyl)-N,1-dimethyl-1H-imidazo[4,5-c]pyridin-6-amine]	7.00 to 11.00	6.30 to 7.00	7.00 to 11.00	6.00 to 6.30
CCc1cc(-c2cnc(C(C)C)nc2)ccc1N(C)c1cc2c(cn1)ncn2C [Compound 140, N-(2-ethyl-4-(2-isopropylpyrimidin-5-yl)phenyl)-N,1-dimethyl-1H-imidazo[4,5-c]pyridin-6-amine]	7.00 to 11.00	< 6.00	6.30 to 7.00	< 6.00
CCc1cc(CN2CCN(C)CC2)ccc1N(C)c1cc2c(cn1)ncn2C [Compound 141, N-(2-ethyl-4-((4-methylpiperazin-1-yl)methyl)phenyl)-N,1-dimethyl-1H-imidazo[4,5-c]pyridin-6-amine]	6.30 to 7.00	< 6.00	< 6.00	< 6.00
CCc1cc(CN2CCOCC2)ccc1N(C)c1cc2c(cn1)ncn2C [Compound 142, N-(2-ethyl-4-(morpholinomethyl)phenyl)-N,1-dimethyl-1H-imidazo[4,5-c]pyridin-6-amine]	7.00 to 11.00	< 6.00	6.30 to 7.00	6.00 to 6.30
CCc1cc(CN2CCS(=O)(=O)CC2)ccc1N(C)c1cc2c(cn1)ncn2C [Compound 143, [4-(1,1-Dioxothiomorpholin-4-ylmethyl)-2-ethyl-phenyl]-methyl-(1-methyl-1H-imidazo[4,5-c]pyridin-6-yl)-amine]	7.00 to 11.00	6.00 to 6.30	6.00 to 6.30	< 6.00
CCc1cc(-c2cnccn2)ccc1N(C)c1cc2c(cn1)ncn2C [Compound 144, N-(2-ethyl-4-(pyrazin-2-yl)phenyl)-N,1-dimethyl-1H-imidazo[4,5-c]pyridin-6-amine]	7.00 to 11.00	6.00 to 6.30	7.00 to 11.00	< 6.00
CCc1cc(-c2noc(C)n2)ccc1N(C)c1cc2c(cn1)ncn2C [Compound 147, N-(2-ethyl-4-(5-methyl-1,2,4-oxadiazol-3-yl)phenyl)-N,1-dimethyl-1H-imidazo[4,5-c]pyridin-6-amine]	7.00 to 11.00	< 6.00	7.00 to 11.00	6.00 to 6.30
CCc1cc(-c2noc(CC#N)n2)ccc1N(C)c1cc2c(cn1)ncn2C [Compound 148, 2-(3-(3-ethyl-4-(methyl(1-methyl-1H-imidazo[4,5-c]pyridin-6-yl)amino)phenyl)-1,2,4-oxadiazol-5-yl)acetonitrile]	7.00 to 11.00	6.00 to 6.30	7.00 to 11.00	6.00 to 6.30
CCc1cc(CNCC#N)ccc1N(C)c1cc2c(cn1)ncn2C [Compound 149, 2-(3-ethyl-4-(methyl(1-methyl-1H-imidazo[4,5-c]pyridin-6-yl)amino)benzylamino) acetonitrile]	7.00 to 11.00	6.30 to 7.00	7.00 to 11.00	< 6.00
CCc1cc(-c2cscn2)ccc1N(C)c1cc2c(cn1)ncn2C [Compound 150, N-(2-ethyl-4-(thiazol-4-yl)phenyl)-N,1-dimethyl-1H-imidazo[4,5-c]pyridin-6-amine]	7.00 to 11.00	6.30 to 7.00	7.00 to 11.00	6.30 to 9.00
CCc1cc(C2=CCOCC2)ccc1N(C)c1cc2c(cn1)ncn2C [Compound 153, N-(4-(3,6-dihydro-2H-pyran-4-yl)-2-ethylphenyl)-N,1-dimethyl-1H-imidazo[4,5-c]pyridin-6-amine]	7.00 to 11.00	6.30 to 7.00	7.00 to 11.00	6.30 to 9.00
CCc1cc(C2=CCN(C(=O)OC(C)(C)C)CC2)ccc1N(C)c1cc2c(cn1)ncn2C [Compound 154, tert-butyl 4-(3-ethyl-4-(methyl(1-methyl-1H-imidazo[4,5-c]pyridin-6-yl)amino)phenyl)-5,6-dihydropyridine-1(2H)-carboxylate]	7.00 to 11.00	< 6.00	6.30 to 7.00	< 6.00
CCc1cc(-c2cnccc2Cl)ccc1N(C)c1cc2c(cn1)ncn2C [Compound 155, N-(4-(4-chloropyridin-3-yl)-2-ethylphenyl)-N,1-dimethyl-1H-imidazo[4,5-c]pyridin-6-amine]	7.00 to 11.00	6.30 to 7.00	7.00 to 11.00	6.00 to 6.30
CCc1cc(-c2noc(CCC#N)n2)ccc1N(C)c1cc2c(cn1)ncn2C [Compound 156, 3-(3-(3-Ethyl-4-(methyl(1-methyl-1H-imidazo[4,5-c]pyridin-6-yl)amino)phenyl)-1,2,4-oxadiazol-5-yl)propanenitrile]	7.00 to 11.00	< 6.00	7.00 to 11.00	6.00 to 6.30
CCc1cc(-c2noc(COC)n2)ccc1N(C)c1cc2c(cn1)ncn2C [Compound 157, N-(2-ethyl-4-(5-(methoxymethyl)-1,2,4-oxadiazol-3-yl)phenyl)-N,1-dimethyl-1H-imidazo[4,5-c]pyridin-6-amine]	7.00 to 11.00	< 6.00	7.00 to 11.00	< 6.00
CCC(=O)N1CC=C(c2ccc(N(C)c3cc4c(cn3)ncn4C)c(CC)c2)CC1 [Compound 158, 1-(4-(3-ethyl-4-(methyl(1-methyl-1H-imidazo[4,5-c]pyridin-6-yl)amino)phenyl)-5,6-dihydropyridin-1(2H)-yl)propan-1-one]	7.00 to 11.00	6.30 to 7.00	7.00 to 11.00	6.30 to 9.00
CCc1cc(CNC(=O)OC(C)(C)C)ccc1N(C)c1cc2c(cn1)ncn2C [Compound 252, tert-Butyl 3-ethyl-4-(methyl(1-methyl-1H-imidazo[4,5-c]pyridin-6-yl)amino)benzylcarbamate]				< 6.00
